Measured values published in patent publication US8535706B2, “Bone implant” (Duquesne University of the Holy Spirit, priority 2010, dated 2013).

Key:
mesenchymal stem cells = settings: cited from earlier work
[1] = Heat stability of Melatonin adsorbed or linked to a substrate; type: physicochemical
From the text: In the practice of the invention, the coadministration, adsorption or linking of Melatonin to the bone graft substrate preferably involves Melatonin per se, although the use of the precursors or metabolites of Melatonin (including but not limited to 5-hydroxytryptophan (5OHTrp), 5-hydroxytryptamine (5HT), N-acetyl-5-hydroxytryptamine (NA5OHT) or 6-hydroxymelatonin (6OHMEL)) still falls within the scope of this invention albeit in a less preferred way.

Row | Compound | spreading of the cells (mesenchymal stem cells; mesenchymal stem cells) | attachment of mesenchymal stem cells (mesenchymal stem cells; substrates: hydroxyapatite, titanium, polymer scaffolds) | stability to autoclaving ([1]; adsorbed or linked to substrate, autoclaved such as at 180° C.) | stability to sintering ([1]; sintering temperatures used to make bone grafts and implants)
1 | arg-gly-asp [RDG peptide] | does not enhance the spreading | can increase the attachment |  | 
2 | COc1ccc2[nH]cc(CCNC(C)=O)c2c1 [Melatonin, N-acetyl-5-methoxytryptamine] |  |  | surviving the autoclaving process intact | cannot survive
